Laboratory results as given in US11339144B2 (Navitor Pharmaceuticals, Inc., priority 2017, dated 2022).
Read-outs that look alike come from different tables or passages of the source.

Key:
[1] = biological target: HA-GST-Rheb (GTP-γ-S loaded) activating mTORC1 (Homo sapiens (Human), UniProt Q15382); assay: Rheb-dependent in vitro kinase assay (Rheb-IVK; LanthaScreen or Western readout); type: biochemical
[2] = biological target: Rheb (Homo sapiens (Human), UniProt Q15382); assay: Affinity Selection Mass Spectrometry (ASMS); type: binding; conditions: affinity (R3/R0) in Affinity Selection Mass Spectrometry assay
How it was run: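 Human Rheb (60 μM) with GDP (180 μM) and each compound at 2 μM, protein-plus versus protein-minus, incubated 30 min at room temperature, then washed by 10 kDa ultrafiltration. Retained ligand was released with MeCN and detected by UPLC-Q-TOF MS.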

[3] = tested on: S473pAkt in MCF-7 cells; assay: Cell-based AlphaLISA assay, pAkt (S473)
[4] = tested on: T389pS6K1 in MCF-7 cells; assay: Cell-based AlphaLISA assay, pS6K1 (Thr389)
[5] = tested on: mTORC1 and mTORC2 signaling in PC3 cells; assay: Long-term treatment vs. rapamycin in PC3 cells, Western blot; type: cell-based; conditions: replete, 2, 5, 18 or 24 hrs, NR1 30 μM, rapamycin 100 nM
[6] = LanthaScreen variation, Terbium labeled T46p4E-BP1 specific antibody, read-out: IC50 in the Rheb-IVK
[7] = Rheb-dependent in vitro kinase assay, read-out: IVK IC50

Chain of HA-GST-Rheb (GTP-γ-S loaded) activating mTORC1 (Q15382 1-181): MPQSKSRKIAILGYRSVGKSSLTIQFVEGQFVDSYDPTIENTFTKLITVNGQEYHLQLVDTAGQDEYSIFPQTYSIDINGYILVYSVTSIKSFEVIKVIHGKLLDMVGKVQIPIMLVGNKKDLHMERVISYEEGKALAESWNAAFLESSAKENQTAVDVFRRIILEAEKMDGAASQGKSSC
Chain of Rheb (Q15382 1-169 limits assumed): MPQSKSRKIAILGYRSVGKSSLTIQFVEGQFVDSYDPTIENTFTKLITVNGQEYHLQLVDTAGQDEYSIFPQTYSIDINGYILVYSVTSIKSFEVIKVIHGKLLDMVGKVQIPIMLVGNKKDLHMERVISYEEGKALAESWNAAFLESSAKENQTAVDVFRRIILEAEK

CN(C)C(=O)c1ccc(Cn2c(C(=O)O)cc3c(Br)cc(Sc4ccc(Cl)c(Cl)c4)cc32)cc1 [I-102, 4-Bromo-6-(3,4-dichlorophenylthio)-1-(4-(dimethylcarbamoyl)benzyl)-1H-indole-2-carboxylic acid]
IC50 [1, 6]: ~2.1 µM
IC50 [1, 7]: < 10 µM
ASMS (R3/R0) [2]: B (an affinity (R3/R0) between 100% and 20%)
inhibition of pAKT [3]: did not inhibit pAKT

CCC(=O)N1CCN(c2ccc(-n3c(=O)ccc4cnc5ccc(-c6cnc7ccccc7c6)cc5c43)cc2C(F)(F)F)CC1 [Torin-1, reference compound]
IC50 [1, 6]: ~0.002 µM
IC50 [4]: ~0.001 µM
IC50 [3]: ~0.005 µM

CN1CCN(c2ccc(NC(=O)c3cc4c(Sc5ccc(Cl)cc5)cc(Cl)cc4[nH]3)cc2F)CC1 [I-141, 6-chloro-4-(4-chlorophenylthio)-N-(3-fluoro-4-(4-methylpiperazin-1-yl)phenyl)-1H-indole-2-carboxamide]
IC50 [1, 7]: < 10 µM
ASMS (R3/R0) [2]: B (an affinity (R3/R0) between 100% and 20%)
IC50 ([4]; Homo sapiens, MCF7): < 10 µM

CN1CCC(CCNC(=O)c2cc3c(Sc4ccc(Cl)cc4Cl)cc(Cl)cc3[nH]2)CC1 [I-106, 6-chloro-4-(2,4-dichlorophenylthio)-N-(2-(1-methylpiperidin-4-yl)ethyl)-1H-indole-2-carboxamide]
IC50 [1, 7]: < 10 µM
ASMS (R3/R0) [2]: B (an affinity (R3/R0) between 100% and 20%)
IC50 ([4]; Homo sapiens, MCF7): < 10 µM

CN1CCC(CCNC(=O)c2cc3c(Sc4ccc(Cl)cc4)cc(Cl)cc3[nH]2)CC1 [I-142, 6-chloro-4-(4-chlorophenylthio)-N-(2-(1-methylpiperidin-4-yl)ethyl)-1H-indole-2-carboxamide]
IC50 [1, 7]: < 10 µM
ASMS (R3/R0) [2]: A (an affinity (R3/R0)>100%)
IC50 ([4]; Homo sapiens, MCF7): < 10 µM

CO[C@H]1C[C@@H]2CC[C@@H](C)[C@@](O)(O2)C(=O)C(=O)N2CCCC[C@H]2C(=O)O[C@H]([C@H](C)C[C@@H]2CC[C@@H](O)[C@H](OC)C2)CC(=O)[C@H](C)/C=C(\C)[C@@H](O)[C@@H](OC)C(=O)[C@H](C)C[C@H](C)/C=C/C=C/C=C/1C [rapamycin, reference compound]
inhibition of the Rheb-IVK ([1]; LanthaScreen variation, no FKBP12 present): did not inhibit the Rheb-IVK
mTORC1 versus mTORC2 signaling with chronic exposure (T389pS6K1, S473pAkt) [5]: inhibits mTORC2 signaling with chronic exposure

CN1CCC(NC(=O)c2cc3c(Sc4ccc(Cl)cc4)cc(Cl)cc3[nH]2)C1 (centres unmarked) [I-79, 6-chloro-4-(4-chlorophenylthio)-N-(1-methylpyrrolidin-3-yl)-1H-indole-2-carboxamide]
IC50 [1, 7]: < 10 µM
ASMS (R3/R0) [2]: B (an affinity (R3/R0) between 100% and 20%)
IC50 ([4]; Homo sapiens, MCF7): < 10 µM

CN1CCC(CNC(=O)c2cc3c(Sc4ccc(Cl)cc4Cl)cc(Cl)cc3[nH]2)CC1 [I-120, 6-chloro-4-(2,4-dichlorophenylthio)-N-((1-methylpiperidin-4-yl)methyl)-1H-indole-2-carboxamide]
IC50 [1, 7]: < 10 µM
ASMS (R3/R0) [2]: B (an affinity (R3/R0) between 100% and 20%)
IC50 ([4]; Homo sapiens, MCF7): < 10 µM

CN1CCN(c2cccc(NC(=O)c3cc4c(-c5cc(Cl)cc(Cl)c5)cc(Cl)cc4[nH]3)c2)CC1 [I-30, 6-chloro-4-(3,5-dichlorophenyl)-N-(3-(4-methylpiperazin-1-yl)phenyl)-1H-indole-2-carboxamide]
IC50 [1, 7]: < 10 µM
ASMS (R3/R0) [2]: A (an affinity (R3/R0)>100%)
IC50 ([4]; Homo sapiens, MCF7): < 10 µM

O=C(O)c1cc2c(Br)cc(Sc3ccc(Cl)c(Cl)c3)cc2[nH]1 [I-139, 4-bromo-6-(3,4-dichlorophenylthio)-1H-indole-2-carboxylic acid]
IC50 [1, 7]: < 10 µM
ASMS (R3/R0) [2]: B (an affinity (R3/R0) between 100% and 20%)

O=C(O)c1nc2c(OCC3CCCCC3)c(Cl)c(Cl)cc2[nH]1 [I-342, 5,6-dichloro-4-(cyclohexylmethoxy)-1H-benzo[d]imidazole-2-carboxylic acid]
IC50 [1, 7]: 10 to 100 µM
ASMS (R3/R0) [2]: B (an affinity (R3/R0) between 100% and 20%)

CN(C)C(=O)c1cccc(Cn2c(C(=O)O)cc3c(Br)cc(Oc4ccccc4)cc32)c1 [I-40, 4-bromo-1-(3-(dimethylcarbamoyl)benzyl)-6-phenoxy-1H-indole-2-carboxylic acid]
IC50 [1, 7]: 10 to 100 µM
ASMS (R3/R0) [2]: C (an affinity (R3/R0)<20%)

CN(C)C(=O)c1ccc(Cn2c(C(=O)O)cc3c(Br)cc(Sc4cccc(OC(F)(F)F)c4)cc32)cc1 [I-20, 4-bromo-1-(4-(dimethylcarbamoyl)benzyl)-6-(3-(trifluoromethoxy)phenylthio)-1H-indole-2-carboxylic acid]
IC50 [1, 7]: < 10 µM
ASMS (R3/R0) [2]: A (an affinity (R3/R0)>100%)

CN1CCC[C@H]1CNC(=O)c1ccc(-c2nc3cc(Cl)c(Cl)cc3[nH]2)cc1 [I-336]
IC50 [1, 7]: > 100 µM
ASMS (R3/R0) [2]: B (an affinity (R3/R0) between 100% and 20%)

OCc1cc2c(Oc3ccc(C4CCCCC4)cc3)cc(Cl)cc2[nH]1 [I-127, (6-chloro-4-(4-cyclohexylphenoxy)-1H-indol-2-yl)methanol]
IC50 [1, 7]: < 10 µM
ASMS (R3/R0) [2]: B (an affinity (R3/R0) between 100% and 20%)

OCc1nc2c(OC[C@H]3CCCC[C@H]3O)c(Cl)c(Cl)cc2[nH]1 (single isomer, unassigned) [I-389]
IC50 [1, 7]: > 100 µM
ASMS (R3/R0) [2]: C (an affinity (R3/R0)<20%)

CN1CCC(NC(=O)c2cc3c(Sc4ccc(Cl)cc4)cc(Cl)cc3[nH]2)CC1 [I-80]
IC50 [1, 7]: > 100 µM
ASMS (R3/R0) [2]: B (an affinity (R3/R0) between 100% and 20%)

OCc1cc2cc(SCc3ccc(Cl)cc3)c(Cl)cc2[nH]1 [I-76, (6-chloro-5-(4-chlorobenzylthio)-1H-indol-2-yl)methanol]
IC50 [1, 7]: 10 to 100 µM
ASMS (R3/R0) [2]: B (an affinity (R3/R0) between 100% and 20%)

CC(C)NC(=O)c1ccc(Cn2c(C(=O)O)cc3c(Br)cc(Sc4ccc(Cl)c(Cl)c4)cc32)cc1 [I-101]
IC50 [1, 7]: > 100 µM
ASMS (R3/R0) [2]: B (an affinity (R3/R0) between 100% and 20%)

OCc1cc2c(Br)cc(OCc3ccccc3)cc2[nH]1 [I-241, (6-(Benzyloxy)-4-bromo-1H-indol-2-yl)methanol]
IC50 [1, 7]: 10 to 100 µM
ASMS (R3/R0) [2]: B (an affinity (R3/R0) between 100% and 20%)

O=C(O)c1cc2c(Sc3ccc(Br)cc3)cc(Cl)cc2[nH]1 [I-98, 4-(4-bromophenylthio)-6-chloro-1H-indole-2-carboxylic acid]
IC50 [1, 7]: 10 to 100 µM
ASMS (R3/R0) [2]: B (an affinity (R3/R0) between 100% and 20%)

O=C(O)Cn1c(-c2c[nH]c3ncccc23)nc2cc(Cl)c(Cl)cc21 [I-334, 2-(5,6-dichloro-2-(1H-pyrrolo[2,3-b]pyridin-3-yl)-1H-benzo[d]imidazol-1-yl)acetic acid]
IC50 [1, 7]: 10 to 100 µM
ASMS (R3/R0) [2]: B (an affinity (R3/R0) between 100% and 20%)
